Values after ≈ are worked out from the molar mass of the structure shown.
What was measured:
[1] = test system: Aspergillus fumigatus; test: MIC/MFC broth microdilution (CLSI); conditions: ATCC204305
Experimental: (§1) Antifungal susceptibility was determined by broth microdilution according to the CLSI guidelines described in M27-Ed4 ([16]). […] MFC was determined by back-plating drug-treated cultures from MIC broths onto SDA plates. The MFC was defined as the lowest concentration from which no colonies could be cultured.

[2] = test system: Candida albicans; test: MIC/MFC broth microdilution (CLSI); assay type: cell-based; conditions: Candida albicans SC5314
Experimental: as §1

[3] = test system: Aspergillus flavus; test: MIC/MFC broth microdilution (CLSI); conditions: ATCC204304
Experimental: as §1

[4] = test system: Saccharomyces cerevisiae; test: checkerboard drug interaction (FICI, MICc); assay type: cell-based; set-up: INH MICc / INH MICc (ITR:INH) / INH MICc (KET:INH) / INH MICc (FLC:INH): unit not given beside the values;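 note: simplified diagonal checkerboard screen pairing antifungals with FPPS inhibitors, FICI calculated under the Loewe additivity model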
[5] = test system: Candida albicans; test: checkerboard drug interaction (FICI, MICc);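 for all read-outs here: antifungal plus FPPS inhibitor combinations on Candida albicans tested by a simplified diagonal checkerboard screen, with FICI calculated under the Loewe additivity model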; assay type: cell-based; conditions: C. albicans; for INH FD (MIC-MICc fold decrease): fold decrease of inhibitor MIC
Experimental: (§2) Drug interactions between antifungals and FPPS inhibitors were investigated using a simplified checkerboard diagonal screening method ([45]). […] FICIs were determined according to the Loewe additivity model ([17]).

[6] = test system: Cryptococcus deuterogattii; test: MIC/MFC broth microdilution (CLSI); conditions: Cryptococcus deuterogattii;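 note: broth microdilution per CLSI M27-Ed4. MFC is the lowest concentration yielding no colonies when MIC broths are subcultured onto SDA plates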
Experimental: as §1

[7] = test system: Trichophyton rubrum; test: MIC/MFC broth microdilution (CLSI); conditions: Trichophyton rubrum
Experimental: as §1

[8] = test system: Trichophyton rubrum; test: checkerboard drug interaction (FICI, MICc);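 note: simplified diagonal checkerboard screen pairing azole antifungals with FPPS inhibitors, FICI calculated under the Loewe additivity model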; assay type: cell-based; conditions: T. rubrum
Experimental: as §2

[9] = test system: Candida glabrata; test: MIC/MFC broth microdilution (CLSI); conditions: Nakaseomyces glabratus, CBS138;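 note: broth microdilution following CLSI M27-Ed4, MFC taken as the lowest drug level yielding no growth once MIC wells were subcultured on SDA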
Experimental: as §1

[10] = test system: Cryptococcus neoformans; test: checkerboard drug interaction (FICI, MICc);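 for all read-outs here: antifungal plus FPPS inhibitor pairs tested against Cryptococcus neoformans by simplified diagonal checkerboard screening, FICI computed under the Loewe additivity model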; assay type: cell-based; conditions: C. neoformans; for INH FD (MIC-MICc fold decrease): fold decrease of inhibitor MIC
Experimental: as §2

[11] = Fractional Inhibitory Concentration Index, fluconazole + inhibitor
[12] = Fractional Inhibitory Concentration Index, itraconazole + inhibitor
[13] = Fractional Inhibitory Concentration Index, ketoconazole + inhibitor
[14] = MIC of the inhibitor in combination with fluconazole
[15] = MIC of the inhibitor in combination with itraconazole
[16] = MIC of the inhibitor in combination with ketoconazole
[17] = MIC-MICc fold decrease of fluconazole, negative = increase
[18] = MIC-MICc fold decrease of itraconazole, negative = increase
[19] = MIC-MICc fold decrease of ketoconazole, negative = increase
[20] = MIC-MICc fold decrease of the inhibitor, with fluconazole
[21] = MIC-MICc fold decrease of the inhibitor, with itraconazole
[22] = MIC-MICc fold decrease of the inhibitor, with ketoconazole
[23] = FLC:INH combination, MIC of the inhibitor in combination with FLC
[24] = FLC:INH combination, fold decrease of FLC MIC
[25] = ITR:INH combination, MIC of the inhibitor in combination with ITR
[26] = ITR:INH combination, fold decrease of ITR MIC
[27] = KET:INH combination, MIC of the inhibitor in combination with KET
[28] = KET:INH combination, fold decrease of KET MIC

Structure (SMILES): CCCCCCCCCCCN1CCC[C@H]1C(=O)N[C@H](CC(=O)OC)C(=O)OC [dmPDA11]
- MFC [1]: 128 µg/mL (≈ 310 µM)
- MIC [1]: > 128 µg/mL
- MFC [2]: > 128 µg/mL
- MIC [2]: > 128 µg/mL
- MFC [3]: > 128 µg/mL
- MIC [3]: > 128 µg/mL
- FICI (FLC:INH) [4, 11]: ≥4
- FICI (ITR:INH) [4, 12]: 2
- FICI (KET:INH) [4, 13]: 1.25
- INH MICc (FLC:INH) [4, 14]: 256
- INH MICc (ITR:INH) [4, 15]: 64
- INH MICc (KET:INH) [4, 16]: 64
- FLC FD (FLC:INH) [4, 17]: -2
- ITR FD (ITR:INH) [4, 18]: 1
- KET FD (KET:INH) [4, 19]: 4
- INH FD (FLC:INH) [4, 20]: -4
- INH FD (ITR:INH) [4, 21]: 1
- INH FD (KET:INH) [4, 22]: 1
- FICI ([5]; FLC:INH combination): 1.06
- INH MICc [5, 23]: 8
- FLC FD (MIC-MICc fold decrease) [5, 24]: 1
- INH FD (MIC-MICc fold decrease) ([5]; FLC:INH combination): 16
- FICI ([5]; ITR:INH combination): 1.06
- INH MICc [5, 25]: 8
- ITR FD (MIC-MICc fold decrease) [5, 26]: 1
- INH FD (MIC-MICc fold decrease) ([5]; ITR:INH combination): 16
- FICI ([5]; KET:INH combination): 1.06
- INH MICc [5, 27]: 8
- KET FD (MIC-MICc fold decrease) [5, 28]: 1
- INH FD (MIC-MICc fold decrease) ([5]; KET:INH combination): 16
- MFC [6]: 128 µg/mL (≈ 310 µM)
- MIC [6]: 16 µg/mL (≈ 38.8 µM)
- MFC [7]: > 128 µg/mL
- MIC [7]: 16 µg/mL (≈ 38.8 µM)
- FICI (FLC:INH) [8, 11]: ≥4
- FICI (ITR:INH) [8, 12]: 2.13
- FICI (KET:INH) [8, 13]: ≥4
- INH MICc (FLC:INH) [8, 14]: 64
- INH MICc (ITR:INH) [8, 15]: 32
- INH MICc (KET:INH) [8, 16]: 128
- FLC FD (FLC:INH) [8, 17]: 2
- ITR FD (ITR:INH) [8, 18]: 8
- KET FD (KET:INH) [8, 19]: 1
- INH FD (FLC:INH) [8, 20]: -4
- INH FD (ITR:INH) [8, 21]: -2
- INH FD (KET:INH) [8, 22]: < -4
- MFC [9]: 128 µg/mL (≈ 310 µM)
- MIC [9]: 128 µg/mL (≈ 310 µM)
- FICI ([10]; FLC:INH combination): 1.5
- INH MICc [10, 23]: 32
- FLC FD (MIC-MICc fold decrease) [10, 24]: 1
- INH FD (MIC-MICc fold decrease) ([10]; FLC:INH combination): 2
- FICI ([10]; ITR:INH combination): 0.75
- INH MICc [10, 25]: 16
- ITR FD (MIC-MICc fold decrease) [10, 26]: 2
- INH FD (MIC-MICc fold decrease) ([10]; ITR:INH combination): 4
- FICI ([10]; KET:INH combination): 3
- INH MICc [10, 27]: 64
- KET FD (MIC-MICc fold decrease) [10, 28]: -2

— publication PMC12892976, “Alkylation-based optimization of antifungal FPPS inhibitors yields a potent, broad-spectrum lipophilic zoledronate derivative” (mBio, 2025)
